# Test results taken from patent publication US6649644B1, “Method of treating HIV infection by combined use of a cytotoxic agent and a non-nucleoside reverse transcriptase inhibitor” (priority 1998, dated 2003).
# Where two headings read alike, the source gives them in different places.
# Tests used:
# HIV-1 (RF strain) [1] = assay type: cell-based; conditions: for HIV Replication (Day 4), p24: single agent, human PBMCs, Table 2; for changes in the level of HIV p24 after either 4 or 8 days: single agents at the concentrations of Table 2
# Method: Freshly isolated human blood lymphocytes and monocytes were infected with HIV-1 (RF strain) and then incubated for an additional 3 days in the presence of compounds alone or in combinations or left untreated. At the end of 4 days, the infected cells were briefly centrifuged. The supernatant was collected and used to titer HIV p24, using an enzyme-linked immunosorbent assay (ELISA). The cell pellets were washed two times with medium lacking any inhibitors, and the washed human peripheral blood mononuclear cells (PBMCs) were mixed 1:1 with MT-2 lymphocytes and incubated for an additional 4 days absent any inhibitors. All cells were then removed by centrifugation and the supernatant was again assayed for p24 levels by ELISA.
# Viral p24 produced by HIV-1 (RF) infected cells was quantified to determine the effects of a cytotoxic drug and efavirenz alone or in combination. On day one, 5.25×10^e6 donor PBMCs (stimulated by PHA/IL-2 for 72 hours in RPMI tissue culture medium were centrifuged at 1,000 rpm for 10 minutes and the supernatant fluid was decanted. Using 50% tissue culture infectious dose (TCID50) estimated from the viral stock titration procedure (PRR 97-04), 5.25×10^6 PBMCs were infected with 5.2×10^3 TCID50 of virus (M. O. I. ˜0.001). Cells were resuspended, the virus stock added, and incubated at 37° C. for one hour. RPMI was added to the infected PBMCs and unabsorbed virus in the supernatant fluid was removed following centrifugation. The cells were resuspended in 10 mL RPMI (20% FCS, 30 units IL-2/mL) and placed in a 25 cm^2 tissue culture flask. The virus control flask contained infected cells only. Similar flasks contained efavirenz or the cytotoxic drug added separately or in combination. Flasks were incubated at 37° C., in 5% CO2 for 3 days. On day 4, the contents of each flask were centrifuged and the supernatant, inactivated with 0.5% Triton X-100, was frozen at −70° C. for p24 analysis. The infected PBMCs were resuspended in RPMI, centrifuged again, and the supernatant discarded to remove residual drugs. The pellets were resuspended in each flask, and 1×10^e6 MT-2 cells were added. The final volume was 10 mL RPMI (5% FCS) per flask. After 4 more days of incubation (day 8), supernatant from each flask was inactivated with Triton X-100 and frozen at −70° C. The p24 antigen concentration of viral supernatants from days 4 and 8 was determined using the NEN Life Science Products HIV-1 p24 antigen capture assay.
# HIV-1 (RF strain) [2] = assay type: cell-based; conditions: for Infectious Centers (Day 8), p24: single agent, PBMCs washed, co-cultivated with MT-2, Table 2
# [3] = Toxicity of compounds for uninfected MT-2 cells (MTT assay); conditions: human
# Text: (§1) In order to test whether some external death stimuli, which are independent of bcl-2 (Reed, 1994), may not selectively kill HIV-infected cells, we exposed uninfected and HIV-infected cells to various chemical toxins, including losoxantrone, bisnafide, etoposide and hydroxyurea. […] Therefore, we proceeded to examine whether either losoxantrone or etoposide were able to selectively kill HIV-infected cells.
# (§2) The concentration of the cytotoxic drugs losoxantrone, etoposide or hydroxyurea required to reduce cell viability by 50% (TC50) was determined with or without virus infection. Graded concentrations of drug in RPMI (5% FCS) were added to a 96-well microtiter plate. 1×10^e5 cells were added per well. Cell control wells contained cells in RPMI only. Plates were incubated at 37° C., 5% CO2 for 3 days. The tetrazolium dye (3-4,5-dimethylthiazol-2yl)-2,5-diphenyltetrazolium bromide (MTT) was used to assess the number of viable cells. After the 3-day incubation period, 10 μL of MTT (5 mg/mL in 1×PBS) was added to each well. Following a 2 hour incubation at 37° C., 150 μL was removed from each well and 200 μL of 0.04 N HCl in isopropanol was added. The contents of each well were mixed and the quantity of reduced dye was measured by absorbance at 570 nm. The concentration of compound producing a 50% reduction in signal relative to the untreated cultures (TC50) was determined.
# [4] = tested on: human T-lymphocytes (MT-2) infected with HIV-1; assay: Toxicity of compounds for HIV-1-infected MT-2 cells (MTT assay); conditions: for killing of infected cells relative to uninfected lymphocytes: after 24 hours, losoxantrone 10 nM, etoposide 100 nM
# Text: as §1
# as §2, with “Plates were incubated at 37° C., 5% CO2 for 3 days.” left out, “After the 3-day incubation period, 10 μL of MTT (5 mg/mL in 1×PBS) was added to each well.” left out
# PBMC = assay: Inhibition of PBMC cell division; assay type: cell-based, human; conditions: 100 μM
# [5] = tested on: human T-lymphocytes (MT-2); assay: Toxicity of compounds for uninfected MT-2 cells (MTT assay)
# Text: as §1, §2
# [6] = Homo sapiens, T-lymphocyte, read-out: Viable Cells (% Remaining) +HIV
compound,measurement,setting,value
"Nc1cccc(CN2C(=O)N(Cc3cccc(N)c3)[C@H](Cc3ccccc3)[C@H](O)[C@@H](O)[C@H]2Cc2ccccc2)c1 [Compound E, [4R-(4α, 5α, 6β, 7β]-1,3-bis (3-aminophenylmethyl]hexahydro-5,6-dihydroxy-4,7-bis (phenlymethyl-2H-1,3-diazepin-2-one dimethylsulfonate]","HIV Replication (Day 4), p24",HIV-1 (RF strain) [1]; 100 nM,25000 pg/mL
same,changes in the level of HIV p24 after either 4 or 8 days,HIV-1 (RF strain) [1],only small changes
same,"Infectious Centers (Day 8), p24",HIV-1 (RF strain) [2]; 100 nM,350000 pg/mL
O=C1Nc2ccc(Cl)cc2[C@@](C#CC2CC2)(C(F)(F)F)O1 [efavirenz],"viability at 24 h, 0.01 µM",[3]; uninfected MT-2 T-lymphocytes,81%
same,viability at 0.01 µM,[4]; [6],82%
same,"HIV Replication (Day 4), p24",HIV-1 (RF strain) [1]; 10 nM,15000 pg/mL
same,changes in the level of HIV p24 after either 4 or 8 days,HIV-1 (RF strain) [1],only small changes
same,"Infectious Centers (Day 8), p24",HIV-1 (RF strain) [2]; 10 nM,200000 pg/mL
COc1cc([C@@H]2c3cc4c(cc3[C@@H](O[C@@H]3O[C@@H]5CO[C@@H](C)O[C@H]5[C@H](O)[C@H]3O)[C@H]3COC(=O)[C@H]23)OCO4)cc(OC)c1O [etoposide],"viability at 24 h, 0.1 µM",[3],71%
same,viability at 0.1 µM,[4]; [6],12%
same,killing of infected cells relative to uninfected lymphocytes,[4],6 fold
same,p24 results when substituted for losoxantrone,"HIV-1 (RF strain) [2]; compared with the losoxantrone results, not shown",very similar
NC(=O)NO [hydroxyurea],inhibition of PBMC cell division,PBMC,3 fold
O=C1c2c(O)cccc2-c2nn(CCNCCO)c3ccc(NCCNCCO)c1c23 [losoxantrone],"viability at 24 h, 0.01 µM",[3],68%
same,concentration with evidence of substantial toxicity to uninfected cells,[5],≥ 0.01 µM
same,viability at 0.01 µM,[4]; [6],4%
same,killing of infected cells relative to uninfected lymphocytes,[4],5 fold
same,range of concentrations that show selectivity for infected cells,"[4]; cell survival, infected vs. control cells",0.1 to 10 nM
same,"HIV Replication (Day 4), p24",HIV-1 (RF strain) [1]; 10 nM,200000 pg/mL
same,increase in p24 titers,"HIV-1 (RF strain) [1]; 10 nM, days 4 and 8",3 to 7 fold
same,changes in the level of HIV p24 after either 4 or 8 days,HIV-1 (RF strain) [1],only small changes
same,"Infectious Centers (Day 8), p24",HIV-1 (RF strain) [2]; 10 nM,700000 pg/mL
